# Strand notation (5' to 3'): a small letter for the sugar, then the base; units joined by * are phosphorothioate-linked, units joined directly phosphodiester-linked; [ ] holds rarer units or linkages, { } end groups; capitals alone tell only the bases. e = 2'-O-(2-methoxyethyl) (MOE); [5mC] = 5-methylcytosine; d = 2'-deoxy (DNA)
# System: human Factor 11 mRNA
# Assay: Antisense inhibition of human Factor 11 in HepG2 cells, lipofectin, 75 nM (Example 1)
# Format: cell-based
# Conditions: 75 nM antisense oligonucleotide, ~24 h, relative to untreated control cells, gapmers targeted to SEQ ID NO: 1
# Protocol: Antisense oligonucleotides targeted to a Factor 11 nucleic acid were tested for their effects on Factor 11 mRNA in vitro. Cultured HepG2 cells at a density of 10,000 cells per well were transfected using lipofectin reagent with 75 nM antisense oligonucleotide. After a treatment period of approximately 24 hours, RNA was isolated from the cells and Factor 11 mRNA levels were measured by quantitative real time PCR. Factor 11 mRNA levels were adjusted according to total RNA content, as measured by RIBOGREEN. Results are presented as percent inhibition of Factor 11, relative to untreated control cells.
# The chimeric antisense oligonucleotides in Tables 1 and 2 were designed as 5-10-5 MOE gapmers. The gapmers are 20 nucleotides in length, wherein the central gap segment is comprised of 10 2′-deoxynucleotides and is flanked on both sides (in the 5′ and 3′ directions) by wings comprising 5 nucleotides each. Each nucleotide in the 5′ wing segment and each nucleotide in the 3′ wing segment has a 2′-MOE modification. The internucleoside linkages throughout each gapmer are phosphorothioate (P=S) linkages. All cytidine residues throughout each gapmer are 5-methylcytidines. “Target start site” indicates the 5′-most nucleotide to which the gapmer is targeted. “Target stop site” indicates the 3′-most nucleotide to which the gapmer is targeted. Each gapmer listed in Table 1 is targeted to SEQ TD NO: 1 (GENBANK Accession No. NM_000128.3) and each gapmer listed in Table 2 is targeted to SEQ TD NO: 2 (GENBANK Accession No. NT_022792.17, truncated from 19598000 to 19624000).
row,Substance,% inhibition [%]
1,413483 (antisense eA*eA*e[5mC]*eT*eG*dG*d[5mC]*dA*dG*d[5mC]*dG*dG*dA*d[5mC]*dG*eG*e[5mC]*eA*eT*eT) [compound 413483],78
2,412226 (antisense eT*eT*eG*eA*eA*dG*dA*dA*dA*dG*d[5mC]*dT*dT*dT*dA*eA*eG*eT*eA*eA) [compound 412226],17
3,412262 (antisense eA*eA*eT*eG*eA*dG*dA*dT*dA*dA*dA*dT*dA*dT*dT*eT*eG*e[5mC]*eA*e[5mC]) [compound 412262],34
4,412254 (antisense eT*eA*eT*e[5mC]*eT*dG*d[5mC]*d[5mC]*dT*dA*dT*dA*dT*dA*dG*eT*eA*eA*eT*e[5mC]) [compound 412254],16
5,413492 (antisense eA*eG*eA*e[5mC]*eA*d[5mC]*dG*d[5mC]*dA*dA*dA*dA*dT*d[5mC]*dT*eT*eA*eG*eG*eT) [compound 413492],68
6,412232 (antisense eG*eG*e[5mC]*e[5mC]*eA*d[5mC]*dT*d[5mC]*dA*d[5mC]*d[5mC]*dA*d[5mC]*dG*dA*eA*e[5mC]*eA*eG*eA) [compound 412232],80
7,412188 (antisense eT*eG*eA*eG*eA*dG*dA*dA*dT*dT*dG*d[5mC]*dT*dT*dG*e[5mC]*eT*eT*eT*e[5mC]) [compound 412188],21
8,413470 (antisense eG*eT*eT*eA*eT*dA*dG*dT*dT*dT*dA*dT*dG*d[5mC]*d[5mC]*e[5mC]*eT*eT*e[5mC]*eA) [compound 413470],72
9,413496 (antisense eG*eG*e[5mC]*eA*e[5mC]*dA*dG*dA*dT*d[5mC]*dA*dT*d[5mC]*dT*dT*eA*eT*eG*eG*eG) [compound 413496],72
10,413485 (antisense eT*eG*eG*eT*eG*dG*dT*dA*d[5mC]*dA*d[5mC]*dT*d[5mC]*dA*dT*eT*eA*eT*e[5mC]*e[5mC]) [compound 413485],68
11,413464 (antisense eG*eT*eG*eA*eG*d[5mC]*dA*dT*dT*dG*d[5mC]*dT*dT*dG*dA*eA*eA*eG*eA*eA) [compound 413464],42
12,412187 (antisense eT*eT*e[5mC]*eA*eA*dA*d[5mC]*dA*dA*dG*dT*dG*dA*d[5mC]*dA*eT*eA*e[5mC]*eA*e[5mC]) [compound 412187],21
13,412235 (antisense eA*eT*eA*eT*e[5mC]*d[5mC]*dA*d[5mC]*dT*dG*dG*dT*dT*dT*d[5mC]*e[5mC]*eA*eA*eT*eG) [compound 412235],57
14,412211 (antisense eG*eA*eT*eT*eA*dG*dA*dA*dA*dG*dT*dG*d[5mC]*dA*d[5mC]*eA*eG*eG*eA*eT) [compound 412211],64
15,412219 (antisense eG*eG*e[5mC]*eA*eG*dA*dA*d[5mC]*dA*d[5mC]*dT*dG*dG*dG*dA*eT*eG*e[5mC]*eT*eG) [compound 412219],56
16,412196 (antisense eT*eG*eA*eT*eA*dT*dA*dA*dG*dA*dA*dA*dA*dT*d[5mC]*eA*eT*e[5mC]*e[5mC]*eT) [compound 412196],25
17,412202 (antisense eT*eT*eG*eG*eT*dG*dT*dG*dA*dG*d[5mC]*dA*dT*dT*dG*e[5mC]*eT*eT*eG*eA) [compound 412202],65
18,413463 (antisense eG*eA*eG*eT*e[5mC]*dA*d[5mC]*dA*d[5mC]*dA*dT*dT*d[5mC]*dA*d[5mC]*e[5mC]*eA*eG*eA*eA) [compound 413463],74
19,412233 (antisense eT*eG*eT*e[5mC]*eT*d[5mC]*dT*dG*dA*dG*dT*dG*dG*dG*dT*eG*eA*eG*eG*eT) [compound 412233],64
20,412236 (antisense e[5mC]*e[5mC]*eA*eT*eA*dG*dA*dA*dA*d[5mC]*dA*dG*dT*dG*dA*eG*e[5mC]*eG*eG*e[5mC]) [compound 412236],72
21,413466 (antisense eA*e[5mC]*eA*eT*eA*dA*dA*dT*dG*dT*d[5mC]*dT*dT*dT*dG*eT*eT*eG*e[5mC]*eA) [compound 413466],79
22,412253 (antisense eA*eA*eA*eT*eA*dT*dT*dG*d[5mC]*d[5mC]*dT*dT*dA*dT*dG*eG*eT*eA*eA*eT) [compound 412253],20
23,413488 (antisense eA*e[5mC]*eA*eG*eG*dT*dG*dT*d[5mC]*dT*d[5mC]*dT*dG*dA*dG*eT*eG*eG*eG*eT) [compound 413488],49
24,412259 (antisense eT*eT*eT*eT*e[5mC]*dA*dG*dG*dA*dA*dA*dG*dT*dG*dT*eA*eT*e[5mC]*eT*eT) [compound 412259],37
25,412193 (antisense eT*eG*eT*eG*eT*dA*dG*dG*dA*dA*dA*dT*dG*dG*dT*e[5mC]*eA*e[5mC]*eT*eT) [compound 412193],38
26,413486 (antisense eG*eG*e[5mC]*eT*eT*dG*dA*dT*dT*dT*dT*dG*dG*dT*dG*eG*eT*eA*e[5mC]*eA) [compound 413486],83
27,413473 (antisense eA*eG*e[5mC]*e[5mC]*eA*dG*dA*dT*dT*dA*dG*dA*dA*dA*dG*eT*eG*e[5mC]*eA*e[5mC]) [compound 413473],80
28,412222 (antisense eA*eA*e[5mC]*eA*eA*dT*dA*dT*d[5mC]*d[5mC]*dA*dG*dT*dT*d[5mC]*eT*eT*e[5mC]*eT*e[5mC]) [compound 412222],5
29,412221 (antisense eA*eT*e[5mC]*eA*eG*dT*dG*dT*d[5mC]*dA*dT*dG*dG*dT*dA*eA*eA*eA*eT*eG) [compound 412221],48
30,412238 (antisense e[5mC]*eG*e[5mC]*eA*eA*dA*dA*dT*d[5mC]*dT*dT*dA*dG*dG*dT*eG*eA*e[5mC]*eT*e[5mC]) [compound 412238],71

# Same assay, conditions: 75 nM antisense oligonucleotide, ~24 h, relative to untreated control cells, gapmers targeted to SEQ ID NO: 2
row,Substance,% inhibition [%]
1,413532 (antisense eA*eG*eG*eG*eA*dA*dT*dA*dA*d[5mC]*dA*dT*dG*dA*dA*eG*eG*e[5mC]*e[5mC]*e[5mC]) [compound 413532],32
2,413515 (antisense eG*eG*eT*eA*eT*d[5mC]*d[5mC]*dT*dG*dA*dG*dT*dG*dA*dG*eA*eT*e[5mC]*eT*eA) [compound 413515],36
3,413506 (antisense eA*eT*eG*eG*eA*dA*dT*dT*dG*dT*dG*d[5mC]*dT*dT*dA*eT*eG*eA*eG*eT) [compound 413506],57
4,413536 (antisense eT*eT*eA*eA*eT*dA*dT*dA*d[5mC]*dT*dG*d[5mC]*dA*dG*dA*eG*eA*eA*e[5mC]*e[5mC]) [compound 413536],37
5,413518 (antisense eA*eT*eG*eG*eA*dA*dT*d[5mC]*dT*d[5mC]*dT*dT*d[5mC]*dA*dT*eT*eT*e[5mC]*eA*eT) [compound 413518],49
6,413521 (antisense e[5mC]*eT*eG*eG*eG*dA*dA*dG*dG*dT*dG*dA*dA*dT*dT*eT*eT*eT*eA*eG) [compound 413521],62
7,413500 (antisense eG*eT*eG*eA*eG*dA*d[5mC]*dA*dA*dA*dT*d[5mC]*dA*dA*dG*eA*e[5mC]*eT*eT*e[5mC]) [compound 413500],15
8,413522 (antisense eT*e[5mC]*eA*eA*eG*dA*dG*dT*d[5mC]*dT*dT*d[5mC]*dA*dT*dG*e[5mC]*eT*eA*e[5mC]*e[5mC]) [compound 413522],42
9,413504 (antisense eG*eG*e[5mC]*eT*eT*dG*dT*dG*dT*dG*dT*dG*dG*dT*d[5mC]*eA*eA*eT*eA*eT) [compound 413504],54
10,413524 (antisense eG*eA*e[5mC]*eA*eT*dT*dA*dT*dA*d[5mC]*dT*d[5mC]*dA*d[5mC]*d[5mC]*eA*eT*eT*eA*eT) [compound 413524],7
11,413523 (antisense eT*e[5mC]*eA*eG*eT*dT*dT*dA*d[5mC]*d[5mC]*dT*dG*dG*dG*dA*eT*eG*e[5mC]*eT*eG) [compound 413523],61
12,413509 (antisense eT*e[5mC]*eA*eG*eG*dA*d[5mC]*dA*d[5mC]*dA*dA*dG*dT*dA*dA*eA*e[5mC]*e[5mC]*eT*eG) [compound 413509],66
13,413516 (antisense e[5mC]*e[5mC]*eA*eG*e[5mC]*dT*dA*dT*d[5mC]*dA*dG*dG*dA*dA*dA*eA*eT*eT*e[5mC]*e[5mC]) [compound 413516],50
14,413531 (antisense eG*eT*eA*e[5mC]*eA*d[5mC]*dT*d[5mC]*dT*dG*d[5mC]*dA*dA*d[5mC]*dA*eG*eA*eA*eG*e[5mC]) [compound 413531],47
15,413526 (antisense eG*eT*eA*eA*eA*dG*dT*dT*dT*dT*dA*d[5mC]*d[5mC]*dT*dT*eA*eA*e[5mC]*e[5mC]*eT) [compound 413526],47
16,413529 (antisense eT*eG*eT*eG*eT*dG*dG*dG*dT*d[5mC]*d[5mC]*dT*dG*dA*dA*eA*eT*eT*e[5mC]*eT) [compound 413529],52

# Reference: US20230263822A1, “MODULATION OF FACTOR 11 EXPRESSION” (Ionis Pharmaceuticals, Inc., priority 2008, published 2023)
